Experimental findings from US10682382B2, “Composition for relieving pain, stress and insomnia” (priority 2014, dated 2020) are described below.

The test system of experiment [1] is REM sleep deprivation induced hyperalgesia. The experiment is described as follows: REM sleep deprivation induced hyperalgesia (modified flowerpot technique, hot plate method). The experiment is classed as in vivo, Male albino Wistar rats.
Text: The modified flowerpot technique was used to induce REM sleep deprivation. In this method, rats are placed on elevated platforms in a water tank for 96 hrs. During REM sleep muscle atonia occurs as a result of which when an animal enters REM sleep it falls from the platform into the water. Therefore the animal wakes up and climbs onto platform again. This method prevents REM sleep and permits other sleep stages.
The paws of rats are very sensitive to heat at temperatures which are not damaging to the skin. The responses shown by rats placed on a hot plate are jumping, withdrawal of the paws and licking of the paws. This test is thus used to assess the pain threshold and the animal's response to mild painful stimuli.
To induce sleep deprivation, an acrylic box (24 cm×18 cm×18 cm) with platforms of height 9 cm and 6 cm diameter was used. Water was filled, in the box upto a level of 1 cm below the platform. 6 animals were placed on each platform for 96 hrs. One platform was kept vacant to reduce immobilization stress. […] The responses of the animals to painful stimuli were observed (licking of paws, jumping, paw withdrawal) and the duration of time the animal could remain on the hot plate was recorded. […] One hour after application of the test substances, the animals were again subjected to the hot plate and the response was evaluated. […]
Experiment [2] concerns carrageenan induced paw oedema. The experiment can be described thus: Carrageenan induced paw oedema in rats (topical application, plethysmographic paw volume). Particulars: mean ± SD, n = 6; for Paw volume, carrageenan induced paw oedema: topical application 7 days + day 8; for Percentage change in carrageenan induced paw oedema (paw volume): ((Vt−Vo)/Vo)×100.

Take `O=C(O)Cc1ccccc1Nc1c(Cl)cccc1Cl` [Diclofenac]: the “Increase in paw withdrawal time” value in experiment [1] (after minus before formulation, hot plate) worked out at 6.00. Besides, the “Paw withdrawal time, before formulation” value in experiment [1] (hot plate 50±2° C. after 96 hrs REM sleep deprivation, before application of test substance, cut-off 60 seconds, mean ± SD, n = 6) amounted to 6.67 ± 3.33 s. The “Paw volume, carrageenan induced paw oedema” value was found to be 0.23 ± 0.05 in experiment [2] (0 hr (immediately before carrageenan)), 0.67 ± 0.06 in experiment [2] (2 hr after carrageenan), 0.38 ± 0.05 in experiment [2] (5 hr after carrageenan) and 0.20 ± 0.05 in experiment [2] (24 hr after carrageenan). For the same molecule, the results for the “Percentage change in carrageenan induced paw oedema (paw volume)” value in experiment [2] (2 hr vs 0 hr), in experiment [2] (5 hr vs 0 hr) and in experiment [2] (24 hr vs 0 hr) were 202.5 ± 79.48%, 75 ± 82.15 % and −16.66 ± 25.81 %, respectively.
